Results reported in patent US9365604B2, “Oligomer-nucleoside phosphate conjugates” (NEKTAR THERAPEUTICS, priority 2007, dated 2016).
Read-outs that look alike come from different tables or passages of the source.

Columns and labels:
Test in all cases: Sulforhodamine B (SRB) growth inhibition assay
Type in all cases: cell-based, Human
HT29 = conditions: for ratio vs gem (GI50) HT29: GI50 of conjugate vs gemcitabine; for GI50: SRB assay
Experimental: (§1) In Vitro Screening of PEG-Gemcitabine Monophosphate in Selected Human Cancer Cell Lines
(§2) The aim was to determine the GI50 values for PEG-floxuridine conjugates against a panel of cell lines, and based on previous data from Xenograft studies. […] The test articles were solubilized in dimethylsulfoxide and were tested at four different molar (M) concentrations; 10^−4, 10^−5, 10^−6, M. GI50 (the concentration needed to reduce the growth of treated cells to half that of untreated control cells) was calculated for each condition ([(Ti−Tz)/(C-Tz)]×100=50, where Ti, Tz, and C refer to absorbance values obtained from each tested concentration, time zero, and control treatment, respectively).
as §2, with “The objective” for “The aim”, “the IC50” for “the GI50”, “for PEG-gemcitabine” for “for PEG-floxuridine”, “in dimethyl sulfoxide” for “in dimethylsulfoxide”, “10^−6, 10^−7” for “10^−6,”, “condition ([(Ti−Tz)/(C−Tz)]×100=50,” for “condition ([(Ti−Tz)/(C-Tz)]×100=50,”

A2780 = conditions: for ratio vs gem (GI50) A2780: GI50 of conjugate vs gemcitabine; for GI50: SRB assay
Experimental: as §1, §2
as §2, with “The objective” for “The aim”, “the IC50” for “the GI50”, “for PEG-gemcitabine” for “for PEG-floxuridine”, “in dimethyl sulfoxide” for “in dimethylsulfoxide”, “10^−6, 10^−7” for “10^−6,”, “condition ([(Ti−Tz)/(C−Tz)]×100=50,” for “condition ([(Ti−Tz)/(C-Tz)]×100=50,”

MCF7 = conditions: for ratio vs gem (GI50) MCF7: GI50 of conjugate vs gemcitabine; for GI50: SRB assay
Experimental: as §1, §2
as §2, with “The objective” for “The aim”, “the IC50” for “the GI50”, “for PEG-gemcitabine” for “for PEG-floxuridine”, “in dimethyl sulfoxide” for “in dimethylsulfoxide”, “10^−6, 10^−7” for “10^−6,”, “condition ([(Ti−Tz)/(C−Tz)]×100=50,” for “condition ([(Ti−Tz)/(C-Tz)]×100=50,”

COLO205 = conditions: for GI50: COLO205, SRB assay; for ratio vs gem (GI50) COLO-205: GI50 of conjugate vs gemcitabine
Experimental: as §1, §2
as §2, with “The objective” for “The aim”, “the IC50” for “the GI50”, “for PEG-gemcitabine” for “for PEG-floxuridine”, “in dimethyl sulfoxide” for “in dimethylsulfoxide”, “10^−6, 10^−7” for “10^−6,”, “condition ([(Ti−Tz)/(C−Tz)]×100=50,” for “condition ([(Ti−Tz)/(C-Tz)]×100=50,”

HCT15 = conditions: for ratio vs gem (GI50) HCT15: GI50 of conjugate vs gemcitabine; for GI50: SRB assay
Experimental: as §1, §2
as §2, with “The objective” for “The aim”, “the IC50” for “the GI50”, “for PEG-gemcitabine” for “for PEG-floxuridine”, “in dimethyl sulfoxide” for “in dimethylsulfoxide”, “10^−6, 10^−7” for “10^−6,”, “condition ([(Ti−Tz)/(C−Tz)]×100=50,” for “condition ([(Ti−Tz)/(C-Tz)]×100=50,”

Hop62 = conditions: for ratio vs gem (GI50) Hop62: GI50 of conjugate vs gemcitabine; for GI50: SRB assay
Experimental: as §1, §2
as §2, with “The objective” for “The aim”, “the IC50” for “the GI50”, “for PEG-gemcitabine” for “for PEG-floxuridine”, “in dimethyl sulfoxide” for “in dimethylsulfoxide”, “10^−6, 10^−7” for “10^−6,”, “condition ([(Ti−Tz)/(C−Tz)]×100=50,” for “condition ([(Ti−Tz)/(C-Tz)]×100=50,”

[1] = 48 h drug exposure, read-out: GI50 (molar concentration) in Cell Line HT29
[2] = cells exposed for 24 h, read-out: GI50 values (μM) HT29
[3] = 48 h drug exposure, read-out: GI50 (molar concentration) in Cell Line A2780
[4] = cells exposed for 24 h, read-out: GI50 values (μM) A2780
[5] = 48 h drug exposure, read-out: GI50 (molar concentration) in Cell Line MCF7
[6] = cells exposed for 24 h, read-out: GI50 values (μM) MCF7
[7] = 48 h drug exposure, read-out: GI50 (molar concentration) in Cell Line COLO205
[8] = cells exposed for 24 h, read-out: GI50 values (μM) COLO205
[9] = 48 h drug exposure, read-out: GI50 (molar concentration) in Cell Line HCT15
[10] = cells exposed for 24 h, read-out: GI50 values (μM) HCT15
[11] = 48 h drug exposure, read-out: GI50 (molar concentration) in Cell Line Hop62
[12] = cells exposed for 24 h, read-out: GI50 values (μM) Hop62

Compound	ratio vs gem (GI50) HT29 (HT29)	GI50 (HT29; [1]) [µM]	GI50 (HT29; [2]) [µM]	ratio vs gem (GI50) A2780 (A2780)	GI50 (A2780; [3]) [µM]	GI50 (A2780; [4]) [µM]	ratio vs gem (GI50) MCF7 (MCF7)	GI50 (MCF7; [5]) [µM]	GI50 (MCF7; [6]) [µM]	GI50 (COLO205; [7]) [µM]	GI50 (COLO205; [8]) [µM]	ratio vs gem (GI50) COLO-205 (COLO205)	ratio vs gem (GI50) HCT15 (HCT15)	GI50 (HCT15; [9]) [µM]	GI50 (HCT15; [10]) [µM]	ratio vs gem (GI50) Hop62 (Hop62)	GI50 (Hop62; [11]) [µM]	GI50 (Hop62; [12]) [µM]
COCCOCCOCCOP(=O)(O)OC[C@H]1O[C@@H](n2ccc(N)nc2=O)C(F)(F)[C@@H]1O.Cl [Gemcitabine Mono (mPEG3), 5′-gemcitabine methoxy tri(ethylene glycol) phosphate hydrochloride]	13	28	28	2	0.15	0.15	2	0.16	0.158	0.16	0.16	1	14	2.2	2.2	1	2.6	2.6
COCCOCCOCCOCCOCCOCCOCCOP(=O)(O)OC[C@H]1O[C@@H](n2ccc(N)nc2=O)C(F)(F)[C@@H]1O.Cl [Gemcitabine Mono (mPEG7), 5′-gemcitabine methoxy hepta(ethylene glycol) phosphate hydrochloride]	15	32	32	2	0.15	0.15	2	0.16	0.16	0.18	0.18	1	14	2.3	2.3	1	2.4	2.4
